{"source": "paper PMC3942886", "about": "(Molecular and cellular biochemistry, 2013)", "tested_on": "hexokinase (from baker's yeast purchased from Sigma)", "assay": "pyruvate kinase/lactate dehydrogenase coupled assay, NADH oxidation", "type": "biochemical", "conditions": "read-out: Km(glucose); positive control; ATP co-substrate", "data": [{"smiles": "OC[C@H]1OC(O)[C@H](O)[C@@H](O)[C@@H]1O", "note": "(stereo partly shown) [glucose]", "values": [{"measurement": "Km", "value": "~300", "unit": "µM"}]}]}
